Assay results: paper PMC6722685, “A Novel Marine Natural Product Derived Pyrroloiminoquinone with Potent Activity against Skin Cancer Cells” (Marine Drugs, 2019)

Experiments:
SCC13 cells [1] = experiment: MTT assay for cell viability, SCC13 cells; format: cell-based, human; settings: for IC50 / IC90: Homo sapiens, SCC-13, MTT, 24 h treatment, mean ± SD, n = 4; for IC50: read-out: SSC13 Cells IC50 ± SD; for IC90: read-out: SSC13 Cells IC90 ± SD
Method: (§1) We first investigated the dose-dependent effects of all five compounds on the cell viability of human skin cancer cell line, SCC13 as well as an immortalized human skin keratinocyte cell line, HaCaT through MTT assay. […] IC50 and IC90 values for these compounds against these two cell lines were calculated (Table 1). There were statistically significant differences between these two values with p < 0.05.
(§2) All cell lines were seeded on a 96-well cell culture plate at 2 × 10^5 cells per well. After 24 h, the cells were treated with increasing doses of the compounds (0, 0.0625 μM, 0.125 μM, 0.25 μM, 0.5 μM, 1.0 μM). After incubation for 24 h, the medium was removed and 100 μL of MTT solution (500 µg/mL) in PBS was added and kept for 4 h at 37 °C. The formazan crystals thus formed were dissolved in DMSO and the optical density (OD) was measured at 570 nm using a microplate reader (BioTek Synergy H1 Plate Reader, Winooski, VT, USA).

HaCaT cells = experiment: MTT assay for cell viability, HaCaT cells; format: cell-based; settings: 24 h treatment, normal human keratinocytes, mean ± SD, n = 4
Method: as §1, §2

SCC13 cells [2] = experiment: Wound healing (cell migration) assay; format: cell-based, human; settings: 24 h, control group 93.37 ± 3.35
Method: Figure 4 Effect of C278 on migration and invasion ability of the SCC13 cells. (A) SCC13 cells were allowed to proliferate in a 24-well plate until reaching confluency. A scratch was made on the plate using a pipette tip. The unattached cells were washed off. The cells were then treated with either 0.1% DMSO or two doses of C278 (0.5 µM and 1.0 µM) and incubated for 24 h. The images were captured at the time of drug treatment and after 24 h of incubation through a light microscope. (Scale bar: 200 µM). (B) Percent wound closure was measured using Image J software and plotted in bar graphs. Results are combined from two independent experiments and presented as mean ± SD; n = 4. (C) SCC13 cells were seeded in the invasion chambers and incubated for 4 h. Now the cells were treated either with 0.1% DMSO or two doses of C278 (0.5 µM and 1.0 µM) for 24 h. The cells from the upper surface of the membrane were removed with cotton swabs. The invaded cells, which were in the lower surface of the membrane, were stained with crystal violet. Images of the invaded cells were captured using a light microscope. (D) The average number of cells invaded was counted in each group and plotted in bar graphs. […]
SCC13 cells were seeded on 24-well cell culture plate at a density of 2 × 10^5 cells/well and cultured until cells were confluent. […] Percent change in wound area was measured by Image J software.

SCC13 cells [3] = experiment: Cell invasion (trans-well, Matrigel) assay; format: cell-based, human; settings: 24 h, control group 56.50 ± 4.95%
Method: Figure 4 Effect of C278 on migration and invasion ability of the SCC13 cells. (A) SCC13 cells were allowed to proliferate in a 24-well plate until reaching confluency. A scratch was made on the plate using a pipette tip. The unattached cells were washed off. The cells were then treated with either 0.1% DMSO or two doses of C278 (0.5 µM and 1.0 µM) and incubated for 24 h. The images were captured at the time of drug treatment and after 24 h of incubation through a light microscope. (Scale bar: 200 µM). (B) Percent wound closure was measured using Image J software and plotted in bar graphs. Results are combined from two independent experiments and presented as mean ± SD; n = 4. (C) SCC13 cells were seeded in the invasion chambers and incubated for 4 h. Now the cells were treated either with 0.1% DMSO or two doses of C278 (0.5 µM and 1.0 µM) for 24 h. The cells from the upper surface of the membrane were removed with cotton swabs. The invaded cells, which were in the lower surface of the membrane, were stained with crystal violet. Images of the invaded cells were captured using a light microscope. (D) The average number of cells invaded was counted in each group and plotted in bar graphs. Results are presented as mean ± SD; n = 4. * p < 0.01, ** p < 0.001, *** p < 0.0001. […]

[4] = system: proliferating cell nuclear antigen (PCNA); experiment: Western blot, PCNA expression in SCC13 cells; format: cell-based, human; settings: 24 h, dose-dependent
Method: Figure 3 Effects of C278 on the viability of SCC13 and HaCaT cells (A) SCC13 cells were treated with increasing concentrations of C278 at 24 h, and the percentage cell viability was estimated. Results are combined from two independent experiments and are presented as mean ± SD; n = 4. (B) HaCaT cells were treated with increasing concentrations of C278 at 24 h, and the percentage cell viability was estimated. Results are combined from two independent experiments and are presented as mean ± SD; n = 4. (C) Expression of PCNA was measured through western blot. The expression of this protein was normalized using β-Actin as a loading control. Figures are representatives of 2 independent experiments. (D) Densiometric analysis of bands was performed and the bar graphs expressing arbitrary units are presented. Error bar represents mean ± SD, n = 4. * p < 0.01, ** p < 0.001, *** p < 0.0001.
(§3) SCC13 cells (1–2 × 10^6) cultured in 6-well culture plate were treated with different concentrations of C278 for 24 h. […] Membranes were then washed three times with wash buffer (TBS containing 0.5% Tween), and then incubated with horseradish peroxidase (HRP)-conjugated secondary Ab and detected by enhanced chemiluminescence (ECL) detection system according to the manufacturer’s instructions.

Bcl-2 = experiment: Western blot, Bcl-2 expression in SCC13 cells; format: cell-based, human; settings: SCC13 cells, 0.25, 0.5 and 1 µM, 24 h
Method: (§4) Figure 5 Effect of C278 on apoptotic and autophagy related proteins in SCC13 cells. SCC13 cells were treated with 0.1% DMSO and 0.25, 0.5 and 1 µM of C278 for 24 h. The cells were then lysed in cell lysis buffer and protein was estimated. Western blot was performed to estimate the level of expression for human Bcl2, Cleaved-PARP and Beclin-1. The expression of these proteins was normalized using β-Actin as a loading control. Figures are representatives of 2 independent experiments. Bands were analyzed densiometrically and bar graphs expressing arbitrary units are presented adjacent to the western blot. Error bar represents mean ± SD, n = 4. * p < 0.01. ** p < 0.001.
as §3, with “h. Cells were then lysed in cell lysis buffer containing protease inhibitor cocktail and the protein concentrations in the cleared supernatants were estimated using the bicinchoninic acid (BCA) protein assay. The cell lysates were resolved by 10% SDS-PAGE and transferred to nitrocellulose membrane (BioRad, Hercules, CA, USA).” for “h.”

cleaved-PARP = experiment: Western blot, cleaved-PARP in SCC13 cells; format: cell-based, human; settings: SCC13 cells, 0.25, 0.5 and 1 µM, 24 h
Method: as §4
as §3, with “h. Cells were then lysed in cell lysis buffer containing protease inhibitor cocktail and the protein concentrations in the cleared supernatants were estimated using the bicinchoninic acid (BCA) protein assay. The cell lysates were resolved by 10% SDS-PAGE and transferred to nitrocellulose membrane (BioRad, Hercules, CA, USA).” for “h.”

beclin-1 = experiment: Western blot, beclin-1 expression in SCC13 cells; format: cell-based, human; settings: SCC13 cells, 0.25, 0.5 and 1 µM, 24 h
Method: as §4
as §3, with “h. Cells were then lysed in cell lysis buffer containing protease inhibitor cocktail and the protein concentrations in the cleared supernatants were estimated using the bicinchoninic acid (BCA) protein assay. The cell lysates were resolved by 10% SDS-PAGE and transferred to nitrocellulose membrane (BioRad, Hercules, CA, USA).” for “h.”

Row | SMILES | IC50 (SCC13 cells [1]) [nM] | IC90 (SCC13 cells [1]) [nM] | selectivity for killing SCC13 cells compared to HaCaT cells (SCC13 cells [1]; SCC13 vs HaCaT) | IC50 (HaCaT cells) [nM] | IC90 (HaCaT cells) [nM] | Percent wound closure (SCC13 cells [2]; 0.5 μM) [%] | Percent wound closure (SCC13 cells [2]; 1.0 μM) [%] | number of invasive cells (SCC13 cells [3]; 0.5 μM) [%] | number of invasive cells (SCC13 cells [3]; 1.0 μM) [%] | expression of PCNA [4] | expression of Bcl-2 protein (Bcl-2) | production of cleaved-PARP (cleaved-PARP) | expression of beclin-1 (beclin-1)
1 | O=C1C(NCc2cccs2)=CC2=NCCc3c[nH]c1c32 [Compound C278] | 500 ± 110 | 900 ± 210 | two-fold | 1150 ± 210 | 2070 ± 370 | 69.06 ± 2.91 | 39.53 ± 2.17 | 32.00 ± 4.24 | 19.50 ± 4.95 | downregulation | significantly downregulated | increased in a dose-dependent manner | increased in a dose-dependent manner
2 | Cc1ccc(S(=O)(=O)n2cc3c4c2C(=O)C(NCCc2ccc5c(c2)OCO5)=CC4=NCC3)cc1 [Compound C15] | 5310 ± 190 | 9560 ± 350 | – | 730 ± 90 | 1320 ± 160 | – | – | – | – | – | – | – | –
3 | O=C1C(NCCc2ccc3c(c2)OCO3)=CC2=NCCc3c[nH]c1c32 [Compound C238] | 820 ± 20 | 1480 ± 40 | – | 2350 ± 210 | 4230 ± 360 | – | – | – | – | – | – | – | –
4 | Cc1ccc(S(=O)(=O)n2cc3c4c2C(=O)C(NCc2ccccc2)=CC4=NCC3)cc1 [Compound C11] | 510 ± 30 | 920 ± 60 | – | 480 ± 10 | 870 ± 30 | – | – | – | – | – | – | – | –
5 | Cc1ccc(S(=O)(=O)n2cc3c4c2C(=O)C(NCc2ccco2)=CC4=NCC3)cc1 [Compound C45] | 2580 ± 230 | 4650 ± 420 | – | 5240 ± 80 | 9430 ± 150 | – | – | – | – | – | – | – | –
